# From article PMC11249646, “Small-Molecule Disruptors of the Interaction between Calcium- and Integrin-Binding Protein 1 and Integrin αIIbβ3 as Novel Antiplatelet Agents” (ACS Pharmacology & Translational Science, 2024)
# Read-outs that look alike come from different tables or passages of the source.
# Key:
# [1] = biological target: T1, CIB1 and αIIb interaction (CIB1-GST : F-αIIb peptide) (Homo sapiens, UniProt Q99828); assay: FP assay, 1536-well qHTS format (primary and confirmatory screen); assay type: binding; details: for Curve Class (confirmatory screen) / CONFIRMATORY SCREEN Curve Class: qHTS curve class
# T1 construct: made in house; host or cells: BL-21 plus RIL cells (E. coli)
# T1 sequence (Q99828 1-191): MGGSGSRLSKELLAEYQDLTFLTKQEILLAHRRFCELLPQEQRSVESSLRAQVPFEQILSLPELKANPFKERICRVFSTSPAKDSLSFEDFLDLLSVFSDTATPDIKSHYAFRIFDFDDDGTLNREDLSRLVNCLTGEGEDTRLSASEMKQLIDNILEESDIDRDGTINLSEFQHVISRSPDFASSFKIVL
# [2] = biological target: T2, GST-CIB1 : F-scrambled peptide (Homo sapiens, UniProt Q99828); assay: FP scrambled-peptide counter screen, 1536-well format; assay type: binding; details: for Curve Class (counterscreen) / COUNTERSCREEN Curve Class: qHTS curve class
# T2 construct: made in house; host or cells: BL-21 plus RIL cells (E. coli)
# T2 sequence (Q99828 1-191): T1 sequence (Q99828 1-191)
# [3] = Table S3, confirmatory screen, a negative sign marks inhibitory curves
# [4] = Table S3, confirmatory screen, negative = inhibition
# [5] = qHTS primary screen hits, Table S2, negative = inhibition
# [6] = qHTS primary screen hits, Table S2, negative sign = inhibitory curve, several classes where COUNT > 1
# [7] = qHTS primary screen hits, Table S2, read-out: IC50
# [8] = Table S3, counterscreen, negative = inhibition
# [9] = Table S3, counterscreen, read-out: IC50 [μM] (counterscreen)
# [10] = confirmatory screen, negative sign = inhibitory curve
# [11] = confirmatory screen, read-out: IC50 [μM] (confirmatory screen)
# [12] = counterscreen, negative sign = inhibitory curve
# [13] = counterscreen, read-out: IC50 [μM] (counterscreen)
# [14] = qHTS primary screen hits, Table S2, negative sign = inhibitory curve
# [15] = Table S3, counterscreen, a negative sign marks inhibitory curves
# [16] = Table S3, confirmatory screen, YES/NO call
# [17] = Table S3, confirmatory screen, read-out: IC50 [μM] (confirmatory screen)
# [18] = qHTS FP screen hits, Table S2, negative = inhibition
# [19] = qHTS FP screen hits, Table S2, one class per curve where COUNT > 1, negative sign = inhibitory curve
# [20] = qHTS FP screen hits, Table S2, read-out: IC50
# [21] = scrambled-peptide counterscreen
Structure (SMILES),"Curve Class (confirmatory screen) [1, 3]","Efficacy (%) (confirmatory screen) [1, 4]","Efficacy (%) [1, 5]","Curve Class [1, 6]","IC50 [1, 7]","Efficacy (%) (counterscreen) [2, 8]","IC50 [2, 9]",Efficacy (%) (confirmatory screen) ([1]; confirmatory screen),"Confirm? (confirmatory screen) ([1]; confirmatory screen, YES/NO)","Curve Class (confirmatory screen) [1, 10]","IC50 [1, 11]",Efficacy (%) (counterscreen) ([2]; counterscreen),"Curve Class (counterscreen) [2, 12]","Curve Class (counterscreen) [2, 15]",further results
OCc1ccc(-c2ccc(-c3ccc(CO)s3)o2)s1 [NCGC00159570-01],2.4,58%,-57%,-3,34.1 µM,97%,50.1 µM,–,–,–,–,–,–,–,–
COc1ccccc1C(=O)/C=C1/C(=O)Nc2ccc(C)cc21.O=C(O)C(F)(F)F [NCGC00481357-01],–,–,-43%,-1.2,14.1 µM,–,–,-59%,YES,-1.4,5.6 µM,-51%,-1.4,–,"IC50 [2, 13]: 6.3 µM"
CCCCCCCCCCCCCCCC[N+](C)(C)CCN(Cc1ccc(OC)cc1)c1ncccn1.[Br-] [NCGC00016507-05],4,-36%,-71%,–,79.4 µM,100%,89.1 µM,–,–,–,–,–,–,3,"Curve Class [1, 14]: -2.2"
COc1ccc2[nH]c([S+]([O-])Cc3ncc(C)c(OC)c3C)nc2c1 (stereo not shown) [NCGC00016925-10],-1.2,-58%,-35%,-2.2,10.8 µM,-57%,35.5 µM,–,–,–,–,–,–,-2.2,"Confirm? (confirmatory screen) [1, 16]: YES; IC50 [1, 17]: 28.2 µM"
O=C(N/N=C1\C(=O)N(CCc2ccccc2)c2ccccc21)c1cccnc1 [NCGC00420788-01],-2.2,-58%,-28%,-1.4,22.4 µM,-65%,44.7 µM,–,–,–,–,–,–,-2.2,"Confirm? (confirmatory screen) [1, 16]: YES; IC50 [1, 17]: 39.8 µM"
O=C(NNC(=O)c1nc2ccccc2[nH]1)OCc1ccccc1 [NCGC00181216-01],4,-25%,-24%,-2.4,22.4 µM,-28%,–,–,–,–,–,–,–,4,–
O=c1nc(-c2ccccn2)sc2ccccc12 [NCGC00387147-01],–,–,–,–,–,–,–,-28%,YES,-2.4,44.7 µM,0%,4,–,"Efficacy (%) [1, 18]: -72%; Curve Class [1, 19]: -1.2; IC50 [1, 20]: 28.2 µM; Confirm? (counterscreen) ([2]; counterscreen, YES/NO): YES"
C[C@@H](NCc1cc2ccccc2[nH]1)c1cccc2ccccc12.Cl [NCGC00344505-01],4,-25%,-31%,-2.4,21.5 µM,-21%,–,–,–,–,–,–,–,4,–
CC[C@@H](CO)NC(=O)[C@@H]1C=C2c3cccc4c3c(cn4C)C[C@H]2N(C)C1.O=C(O)/C=C\C(=O)O [NCGC00024027-06],–,–,–,–,–,–,–,-88%,YES,-2.2,44.7 µM,-73%,-3,–,"IC50 [2, 13]: 89.1 µM"
Cc1ccccc1C(=O)N1CCc2cc(-c3nc(NC(=O)Cc4ccc(OCCOCCOCCN)cc4)sc3C)ccc21.O=C(O)C(F)(F)F [NCGC00351618-01],–,–,-25%,-1.4,17.8 µM,–,–,-41%,YES,-1.2,39.8 µM,-31%,-2.4,–,"IC50 [2, 13]: 11.2 µM"
NC(=O)c1ccc(O)c2ncccc12 [NCGC00184888-01],–,–,-24%,-1.4,14.1 µM,–,–,–,–,–,–,–,–,–,CONFIRMATORY SCREEN Efficacy (%) ([1]; confirmatory screen): -19%; CONFIRMATORY SCREEN Curve Class ([1]; confirmatory screen): 4; COUNTERSCREEN Efficacy (%) ([2]; counterscreen): -10%; COUNTERSCREEN Curve Class ([2]; counterscreen): 4
CN(C)CCCNC(=O)c1ccc(-c2cc(O)c3ncccc3c2)cc1 [NCGC00183808-06],4,0%,–,–,–,-38%,70.8 µM,–,–,–,–,–,–,-2.4,"Confirm? (counterscreen) ([2]; Table S3, counterscreen, YES/NO call): YES"
CC(C)c1ccccc1Cc1cc(C(=O)Nc2ccc(S(=O)(=O)c3ccccc3C(C)(C)C)cc2)c(O)c(O)c1O [NCGC00263208-01],–,–,-27%,–,15.2 µM,–,–,-56%,YES,-1.2,14.1 µM,-40%,-1.2,–,"Curve Class [1, 14]: -2.4; IC50 [2, 13]: 15.8 µM"
Cc1ccc([N+](=O)[O-])[c]2c1[O][Hg]2 [NCGC00249897-01],4,0%,-49%,-1.4,3.5 µM,111%,–,–,–,–,–,–,–,–,–
C=C1C(=O)[C@@]23C(CC[C@@H]1[C@H]2O)[C@@]12CO[C@]3(O)[C@@H](O)[C@@H]1C(C)(C)CC[C@@H]2O (stereo partly shown) [NCGC00346595-02],–,–,–,–,–,–,–,-89%,YES,-1.1,25.1 µM,-60%,-1.2,–,"IC50 [2, 13]: 15.8 µM"
CC(=O)[O][Hg][c]1ccccc1 [NCGC00091050-09],4,41%,-59%,-1.2,7.9 µM,145%,–,–,–,–,–,–,–,2.3,–
O=C(NC(c1ccco1)c1cc(Cl)c2cccnc2c1O)c1cccs1.O=C(O)C(F)(F)F (stereo not shown) [NCGC00188375-01],4,0%,-35%,-1.2,25.1 µM,81%,50.1 µM,–,–,–,–,–,–,–,–
O=C(O)C(F)(F)F.O=C1Nc2ccccc2/C1=N/NC(=S)Nc1ccc(Oc2ccccc2)cc1 [NCGC00229524-01],-1.4,-29%,-25%,–,2.8 µM,-38%,4 µM,–,–,–,–,–,–,-1.4,"Confirm? (confirmatory screen) [1, 16]: YES; IC50 [1, 17]: 12.6 µM; Curve Class [1, 14]: -1.4"
CC(=O)Oc1cccc2c1C(=O)c1c(OC(C)=O)cc(C(=O)O)cc1C2=O [NCGC00018274-05],–,–,-39%,-2.4,39.8 µM,–,–,–,–,–,–,–,–,–,"CONFIRMATORY SCREEN Confirm? ([1]; confirmatory screen, YES/NO call): YES; CONFIRMATORY SCREEN Curve Class [1, 10]: -1.4; CONFIRMATORY SCREEN Efficacy (%) ([1]; confirmatory screen, negative = inhibition): -50%; IC50 ([1]; confirmatory screen, read-out: CONFIRMATORY SCREEN IC50): 11.2 µM; COUNTERSCREEN Efficacy (%) [2, 21]: -53%; COUNTERSCREEN Confirm? ([2]; scrambled-peptide counterscreen, YES/NO call): YES; COUNTERSCREEN Curve Class [2, 21]: -2.4; IC50 ([2]; scrambled-peptide counterscreen, read-out: COUNTERSCREEN IC50): 50.1 µM"
COc1ccc(NC(=O)c2[nH]c(C)c(C(C)=O)c2C)cc1S(=O)(=O)Nc1ccccc1C#N [NCGC00348145-01],–,–,–,–,–,–,–,-41%,YES,-2.2,35.5 µM,157%,3,–,"Efficacy (%) [1, 18]: -21%; IC50 [1, 20]: 31.6 µM; Confirm? (counterscreen) ([2]; counterscreen, YES/NO): YES; IC50 [2, 13]: 39.8 µM"
O=C(O)c1cnn(-c2nc3cc(Cl)c(OC(F)(F)F)cc3[nH]2)c1 [NCGC00484069-01],–,–,–,–,–,–,–,-39%,YES,-2.4,44.7 µM,-15%,4,–,"Efficacy (%) [1, 18]: -33%; Curve Class [1, 19]: -1.2; IC50 [1, 20]: 28.2 µM; Confirm? (counterscreen) ([2]; counterscreen, YES/NO): YES"
O=C(O)C(F)(F)F.O=C(O)c1csc(-n2nc(-c3ccc(F)c(F)c3)c3cccc(O)c32)n1 [NCGC00356386-01],–,–,–,–,–,–,–,–,–,–,–,–,–,–,"CONFIRMATORY SCREEN Efficacy (%) ([1]; confirmatory screen): -21%; CONFIRMATORY SCREEN Curve Class ([1]; confirmatory screen): 4; Efficacy (%) [1, 18]: -22%; IC50 [1, 20]: 3.2 µM; COUNTERSCREEN Efficacy (%) ([2]; counterscreen): 0%; COUNTERSCREEN Curve Class ([2]; counterscreen): 4"
N#Cc1ccc(NS(=O)(=O)c2ccc(NC(=O)Cc3ccc(Cl)c(Cl)c3)cc2)cc1.O=C(O)C(F)(F)F [NCGC00253445-01],2.3,146%,–,–,–,202%,70.8 µM,–,–,–,–,–,–,–,–
